Test results from article PMC11672400, “Synthesis, Spectroscopic Characterization, Structural Analysis, and Evaluation of Anti-Tumor, Antimicrobial, and Antibiofilm Activities of Halogenoaminopyrazoles Derivatives” (Antibiotics, 2024).
≈ marks a conversion by molar mass, not a printed value. Where two headings read alike, the source gives them in different places.

Columns and labels:
[1] = test system: Staphylococcus aureus ATCC25923; assay: MIC by serial microdilution in liquid medium; assay type: cell-based; conditions: 24 h, 37 °C
Experimental: (§1) The minimum inhibitory concentrations (MIC) were determined by the serial microdilution method in a liquid medium (Tryptone Soy Broth), on 96-well plates. Serial binary dilutions of the compound stock solution (10 mg/mL in DMSO) were carried out in 90 µL of culture medium and 10 µL of 10^6 CFU/mL (Colony Forming Units) microbial suspension. Each test included a positive control (wells with culture medium and microbial suspension) and a negative control for medium sterility. After incubation at 37 °C for 24 h the plates were visually examined, and optical density was measured at 620 nm. […] The MIC value (µg/mL) for the chemical compound was determined by the concentration in the final well without bacterial growth. All experiments were performed in triplicate.

[2] = test system: Escherichia coli ATCC25922; assay: MIC by serial microdilution in liquid medium; assay type: cell-based; conditions: 24 h, 37 °C
Experimental: as §1

[3] = test system: Enterococcus faecalis ATCC29212; assay: MIC by serial microdilution in liquid medium; assay type: cell-based; conditions: 24 h, 37 °C
Experimental: as §1

[4] = test system: Pseudomonas aeruginosa ATCC27853; assay: MIC by serial microdilution in liquid medium; assay type: cell-based; conditions: 24 h, 37 °C
Experimental: as §1

[5] = MTT cell viability / cytotoxicity on normal fibroblasts; assay type: cell-based, mouse; conditions: mouse, read-out: Cell viability on NCTC cells (%)
Excerpt: (§2) Merck chemicals were utilized.
(§3) Untreated cells were used as control, considered 100% viable cells.

[6] = test system: Staphylococcus aureus ATCC25923; assay: Antibiofilm assay (crystal violet), MBIC; assay type: cell-based; conditions: Staphylococcus aureus, ATCC25923; 24 h, 37 °C; read-out: Minimum biofilm inhibition concentration (MBIC), Staphylococcus aureus ATCC25923
Experimental: (§4) Microorganisms were grown in 96-well plates filled with nutrient broth along with test substances, followed by incubation at 37 °C for 24 h. Plates were cleaned and rinsed thrice using SPW solution (sterile physiological water). After that, the attached cells were treated with 110 μL of methanol for 5 min, and then the methanol was removed by turning it upside down. […] Once stained, the solution was removed, and the plates were washed with running tap water. […] The antimicrobial/antibiofilm activity of the compounds was evaluated against two antibiotics, commercial formulations of metronidazole and nitrofurantoin.

[7] = test system: Escherichia coli ATCC25922; assay: Antibiofilm assay (crystal violet), MBIC; assay type: cell-based; conditions: 37 °C
Experimental: as §4

[8] = test system: Enterococcus faecalis ATCC29212; assay: Antibiofilm assay (crystal violet), MBIC; assay type: cell-based; conditions: 37 °C
Experimental: as §4

[9] = test system: Pseudomonas aeruginosa ATCC27853; assay: Antibiofilm assay (crystal violet), MBIC; assay type: cell-based; conditions: 37 °C
Experimental: as §4

[10] = test system: HEp-2 epithelial tumor cells; assay: MTT cell viability / anti-tumor activity; conditions: Homo sapiens, read-out: Cell viability on Hep2 cells (%)
[11] = test system: Staphylococcus aureus ATCC25923; assay: Qualitative evaluation of antimicrobial activity (inhibition zone, spot on agar); assay type: cell-based; set-up: key: (+) inhibited bacterial growth; (-) did not inhibit bacterial growth; conditions: 0.06 g/2 mL DMSO, 5 µL spot
Experimental: (§5) For testing the antimicrobial/antibiofilm activity, the concentration of the studied compounds was identical to 0.06 g/2 mL DMSO. 0.5 Standard McFarland suspension was used, which was inoculated onto Mueller Hinton agar plates, (Remel, Lenexa, KS, USA), 5 µL of each compound was spotted and incubated overnight at 37 °C. Antimicrobial activity was observed as zones of inhibition formed around the spot.

[12] = test system: Escherichia coli ATCC25922; assay: as above; assay type: cell-based; set-up: key: (+) inhibited bacterial growth; (-) did not inhibit bacterial growth; conditions: 0.06 g/2 mL DMSO, 5 µL spot
Experimental: as §5

[13] = test system: Enterococcus faecalis ATCC29212; assay: as above; assay type: cell-based; set-up: key: (+) inhibited bacterial growth; (-) did not inhibit bacterial growth; conditions: 0.06 g/2 mL DMSO, 5 µL spot
Experimental: as §5

[14] = test system: Pseudomonas aeruginosa ATCC27853; assay: as above; assay type: cell-based; set-up: key: (+) inhibited bacterial growth; (-) did not inhibit bacterial growth; conditions: 0.06 g/2 mL DMSO, 5 µL spot
Experimental: as §5

[15] = test system: NCTC (clone 929) mouse fibroblast cells; assay: MTT cell viability / cytotoxicity on normal fibroblasts; assay type: cell-based; conditions: Mus musculus, NCTC clone 929; NCTC normal fibroblasts, MTT, 48 h
Excerpt: as §2, §3

Row | SMILES | viability at 24 h, 3.1 µg/mL [5] | viability at 48 h, 3.1 µg/mL [5] | viability at 24 h, 6.25 µg/mL [5] | viability at 48 h, 6.25 µg/mL [5] | viability at 24 h, 12.5 µg/mL [5] | viability at 48 h, 12.5 µg/mL [5] | viability at 24 h, 25 µg/mL [5] | viability at 48 h, 25 µg/mL [5] | viability at 24 h, 50 µg/mL [5] | viability at 48 h, 50 µg/mL [5] | viability at 3.1 µg/mL ([10]; HEp-2, 24 h) | viability at 6.25 µg/mL ([10]; HEp-2, 24 h) | viability at 12.5 µg/mL ([10]; HEp-2, 24 h) | viability at 25 µg/mL ([10]; HEp-2, 24 h) | viability at 50 µg/mL ([10]; HEp-2, 24 h) | viability at 3.1 µg/mL ([10]; HEp-2, 48 h) | viability at 6.25 µg/mL ([10]; HEp-2, 48 h) | viability at 12.5 µg/mL ([10]; HEp-2, 48 h) | viability at 25 µg/mL ([10]; HEp-2, 48 h) | viability at 50 µg/mL ([10]; HEp-2, 48 h) | further results
1 | Cc1nn(CN(Cn2nc(C)c([N+](=O)[O-])c2C)c2ccc(Br)cc2)c(C)c1[N+](=O)[O-] [5c, N,N-bis-[(3,5-dimetyl-4-nitro-1H-pyrazol-1-yl)-methyl]-4-bromoaniline] | 105 ± 1.96% | 96.7 ± 2.96% | 106 ± 2.3% | 101 ± 3.63% | 106 ± 3.74% | 97.4 ± 1.99% | 105 ± 1.88% | 96.6 ± 2.02% | 84 ± 2.12% | 68 ± 1.61% | 112 ± 2.32% | 114 ± 2.18% | 117 ± 2.83% | 113 ± 1.52% | 102 ± 2.71% | 96.9 ± 1.38% | 96.5 ± 1.58% | 89.2 ± 2.02% | 65.3 ± 2.09% | 50.2 ± 2.02% | Minimum inhibitory concentration, Staphylococcus aureus ATCC25923 [1]: 3750 ± 0.04 µg/mL (≈ 7.84 mM); MIC ([1]; Staphylococcus aureus, ATCC25923, read-out: Minimum inhibitory concentration, Staphylococcus aureus ATCC25923): 3750 µg/mL (≈ 7.84 mM); Minimum inhibitory concentration, Escherichia coli ATCC25922 [2]: 3750 ± 0.54 µg/mL (≈ 7.84 mM); MIC ([2]; Escherichia coli, ATCC25922, read-out: Minimum inhibitory concentration, Escherichia coli ATCC25922): 3750 µg/mL (≈ 7.84 mM); Minimum inhibitory concentration, Enterococcus faecalis ATCC29212 [3]: 3750 ± 0.08 µg/mL (≈ 7.84 mM); MIC ([3]; Enterococcus faecalis, ATCC29212, read-out: Minimum inhibitory concentration, Enterococcus faecalis ATCC29212): 3750 µg/mL (≈ 7.84 mM); Minimum inhibitory concentration, Pseudomonas aeruginosa ATCC27853 [4]: 3750 ± 0.51 µg/mL (≈ 7.84 mM); MIC ([4]; Pseudomonas aeruginosa, ATCC27853, read-out: Minimum inhibitory concentration, Pseudomonas aeruginosa ATCC27853): 3750 µg/mL (≈ 7.84 mM); minimal effective concentration [6]: 1870 ± 0.15 µg/mL; Minimum biofilm inhibition concentration (MBIC), Escherichia coli ATCC25922 ([7]; 24 h): 3750 ± 0.48 µg/mL; minimal effective concentration ([7]; Escherichia coli, ATCC25922, 24 h, read-out: Minimum biofilm inhibition concentration (MBIC), Escherichia coli ATCC25922): 3750 µg/mL; Minimum biofilm inhibition concentration (MBIC), Enterococcus faecalis ATCC29212 ([8]; 24 h): 1870 ± 0.06 µg/mL; minimal effective concentration ([8]; Enterococcus faecalis, ATCC29212, 24 h, read-out: Minimum biofilm inhibition concentration (MBIC), Enterococcus faecalis ATCC29212): 1870 µg/mL; Minimum biofilm inhibition concentration (MBIC), Pseudomonas aeruginosa ATCC27853 ([9]; 24 h): 1870 ± 0.53 µg/mL; minimal effective concentration ([9]; Pseudomonas aeruginosa, ATCC27853, 24 h, read-out: Minimum biofilm inhibition concentration (MBIC), Pseudomonas aeruginosa ATCC27853): 1870 µg/mL; melting point: 133 to 135 °C; Qualitative antimicrobial activity, Staphylococcus aureus ATCC25923 [11]: -; Qualitative antimicrobial activity, Escherichia coli ATCC25922 [12]: -; Qualitative antimicrobial activity, Enterococcus faecalis ATCC29212 [13]: -; Qualitative antimicrobial activity, Pseudomonas aeruginosa ATCC27853 [14]: -
2 | C[C@@H]1CC[C@@]2(OC1)O[C@H]1C[C@H]3[C@@H]4CC=C5C[C@@H](O[C@@H]6O[C@H](CO)[C@@H](O[C@@H]7O[C@@H](C)[C@H](O)[C@@H](O)[C@H]7O)[C@H](O)[C@H]6O[C@@H]6O[C@@H](C)[C@H](O)[C@@H](O)[C@H]6O)CC[C@]5(C)[C@H]4CC[C@]3(C)[C@H]1[C@@H]2C [dioscin, reference compound] | 94.3 ± 2.49% | 94.2 ± 1.66% | 93 ± 3.24% | 72.6 ± 1.67% | 38.7 ± 2.55% | 37 ± 2.55% | 14.9 ± 2.63% | 8.55 ± 1.26% | 13.7 ± 2.06% | 7.14 ± 1.28% | 97.09 ± 0.43% | 76.7 ± 2.01% | 58.92 ± 0.3% | 13.9 ± 0.18% | 11.5 ± 0.14% | 95.99 ± 0.53% | 62 ± 1.78% | 38 ± 2.09% | 7.49 ± 1.32% | 7.27 ± 1.14% | IC50 [15]: 15.8 ± 2.19 µg/mL (≈ 0.0182 mM)
